The values that follow come from patent US8088918B2, “Noncardiotoxic pharmaceutical compounds” (Williamsburg Holdings LLC, priority 2004, dated 2012).

For series [1] the following is noted: parent drugs; cited from earlier work.
Series [2] deals with T1, recombinant human CYP3A4 (Homo sapiens, UniProt P08684).
T1 construct: purchased BD Gentest (Woburn, Mass.)
As to the kind of experiment: Metabolic stability in the presence of CYP3A4 isozyme. It is filed as in vitro ADME. The following applies: 10 μm compound. Here is the method:
(§1) The metabolic stability of each compound prepared in Examples 1-5 was assessed in the presence of CYP2D6 and CYP3A4 obtained from BD Gentest (Woburn, Mass.).
(§2) The metabolic stability of each compound prepared in Examples 1-5 was assessed in duplicate by incubation of 10 μm compound with recombinant human CYP2D6 and 3A4 using similar conditions to those in Example 9. Samples were removed for analysis at 0, 30 and 60 minutes and extracted with one volume of organic solvent. Appropriate controls were included. Quantification of the disappearance of the prodrug was conducted LC-MS. Appearance of metabolites was also monitored.

Series [3] is described as follows: Metabolic stability, microsomal incubations with ketoconazole (CYP3A4 inhibitor). Type of series: in vitro ADME. The following applies: 10 μM, 0.5 mg/mL microsomal protein. How it is done: (§3) The metabolic stability of each compound prepared in Examples 1-5 was assessed in microsomal preparations obtained from BD Gentest (Woburn, Mass.).
(§4) The metabolic stability of each compound prepared in Examples 1-5 was assessed in duplicate by incubation of 10 μM compound with 0.5 mg/mL microsomal protein, 1 mM in 0.1 M phosphate buffer, pH 7.4 in the presence and absence of a CYP3A4 inhibitor (ketoconazole). The reaction mixture was pre-incubated, in the absence of the microsomes, at ca. 37° C. for 5 minutes, followed by initiation of the incubation by the addition of microsomal protein and maintained at ca. 37° C. for a further 0, 30 and 60 minutes. After the appropriate incubation time, the mixtures were quenched by the addition of one volume of acetonitrile and the supernatant was isolated by centrifugation. Positive control incubations (7-ethoxycoumarin) were performed in the same manner as the compounds from Examples 1-5 and quenched after 0 and 30 minutes. In addition, negative control incubations were performed for 60 minutes in the absence of NADPH to assess chemical stability.
(§5) Analysis of supernatants from each time interval was conducted for each compound prepared in Examples 1-5 by LC-MS analysis. Quantification of the disappearance on the parent drug was achieved by comparison of the sample response to that of a suitable standard curve constructed in 0.1 M phosphate buffer, pH 7.4. The standard curve ranged between ≦1% up to ≧100% of the dosing concentration.
(§6) The % turnover following 60 minutes of incubation was calculated by comparison of the parent concentration to that at 0 minutes. The % degradation was calculated in the same manner from the negative control incubations. Appearance of the parent drug and the hydroxymetabolites were also monitored at each time interval.

Series [4] can be described thus: Stability testing of prodrugs in rat plasma (elevated esterase activity). The following applies: 10 μM, ca. 37° C. Type of series: in vitro ADME, Sprague-Dawley rat. How it is done:
Sprague-Dawley rat plasma was obtained by collection into sodium EDTA as the anticoagulant, and was stored at ca −20° C. prior to use. Prior to use, the plasma defrosted and was spun at ca. 3000 rpm for 5 minutes to remove any precipitate. The pH of the plasma was adjusted to pH 7.4 by careful addition of NaH2PO4 buffer.
Plasma stability was assessed by incubation of 10 μM of each compound prepared in Examples 1-5 with rat plasma, in duplicate, at ca. 37° C. with shaking. Each compound prepared in Examples 1-5 was also incubated at 10 μM in PBS as a control for compound heat stability. Aliquots were removed at 0, 0.5, 1 and 2 hours and stored at −20° C. until analysis.
For analysis, plasma samples were extracted in 1 part acetonitrile and isolation of the supernatant. Analysis of each compound prepared in Examples 1-5 in plasma extracts was conducted by an LC-MS method at each time interval and quantification was achieved by comparison of the response due to the sample to that of a three point standard curve. Appearance of the parent drug and the hydroxymetabolites were also monitored at each time interval. The % degradation following incubation at each time point was calculated by comparison of the parent concentration to that at 0 minutes.

The nature of series [5]: Stability testing in simulated intestinal fluids. The note with it: 10 μM.
A short description of series [6]: Metabolic stability, microsomal incubations without inhibitor. It is filed as in vitro ADME. The following applies: 10 μM, 0.5 mg/mL microsomal protein. How it is done: as §3, §4, §5, §6
The nature of series [7]: Stability testing of prodrugs in human plasma. The note with it: 10 μM, ca. 37° C. It is filed as in vitro ADME. How it is done:
Pooled human plasma was obtained from Bioreclamation (East Meadow, N.Y.) by collection into sodium EDTA as the anticoagulant, and was stored at ca −20° C. prior to use. Prior to use, the plasma defrosted and was spun at ca. 3000 rpm for 5 minutes to remove any precipitate. The pH of the plasma was adjusted to pH 7.4 by careful addition of NaH2PO4 buffer.
Plasma stability was assessed by incubation of 10 μM of each compound prepared in Examples 1-5 with human plasma, in duplicate, at ca. 37° C. with shaking. Each compound prepared in Examples 1-5 was also incubated at 10 μM in PBS as a control for compound heat stability. Aliquots were removed at 0, 0.5, 1 and 2 hours and stored at −20° C. until analysis.
For analysis, plasma samples were extracted in 1 part acetonitrile and isolation of the supernatant. Analysis of each compound prepared in Examples 1-5 in plasma extracts was conducted by an LC-MS method at each time interval and quantification was achieved by comparison of the response due to the sample to that of a three point standard curve. Appearance of the parent drug the hydroxymetabolites were also monitored at each time interval. The % degradation following incubation at each time point was calculated by comparison of the parent concentration to that at 0 minutes.

Series [8] deals with CYP2D6 (Homo sapiens, UniProt P10635). Briefly: Metabolic stability in the presence of CYP2D6 isozyme. Type of series: in vitro ADME. Also on record: purchased BD Gentest (Woburn, Mass.). The note with it: 10 μm compound. Here is the method: as §1, §2
Series [9] in a line: Stability testing in simulated gastric fluids. The following applies: 10 μM, saline pH approximately 1 plus pepsin.

T1 sequence (P08684 whole entry): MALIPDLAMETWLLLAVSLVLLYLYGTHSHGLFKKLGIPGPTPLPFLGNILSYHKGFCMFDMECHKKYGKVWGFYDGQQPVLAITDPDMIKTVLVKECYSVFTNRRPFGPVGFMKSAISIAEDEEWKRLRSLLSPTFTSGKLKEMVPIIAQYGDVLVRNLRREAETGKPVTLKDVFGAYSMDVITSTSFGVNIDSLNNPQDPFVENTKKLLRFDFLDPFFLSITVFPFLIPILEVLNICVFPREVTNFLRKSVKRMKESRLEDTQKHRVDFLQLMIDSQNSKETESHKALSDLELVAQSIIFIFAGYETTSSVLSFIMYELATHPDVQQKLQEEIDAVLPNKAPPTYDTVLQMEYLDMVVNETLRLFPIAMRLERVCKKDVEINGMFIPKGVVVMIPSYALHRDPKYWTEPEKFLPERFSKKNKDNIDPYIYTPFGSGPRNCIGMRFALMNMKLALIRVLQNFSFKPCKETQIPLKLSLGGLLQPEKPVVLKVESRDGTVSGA
Chain of CYP2D6 (P10635 whole entry): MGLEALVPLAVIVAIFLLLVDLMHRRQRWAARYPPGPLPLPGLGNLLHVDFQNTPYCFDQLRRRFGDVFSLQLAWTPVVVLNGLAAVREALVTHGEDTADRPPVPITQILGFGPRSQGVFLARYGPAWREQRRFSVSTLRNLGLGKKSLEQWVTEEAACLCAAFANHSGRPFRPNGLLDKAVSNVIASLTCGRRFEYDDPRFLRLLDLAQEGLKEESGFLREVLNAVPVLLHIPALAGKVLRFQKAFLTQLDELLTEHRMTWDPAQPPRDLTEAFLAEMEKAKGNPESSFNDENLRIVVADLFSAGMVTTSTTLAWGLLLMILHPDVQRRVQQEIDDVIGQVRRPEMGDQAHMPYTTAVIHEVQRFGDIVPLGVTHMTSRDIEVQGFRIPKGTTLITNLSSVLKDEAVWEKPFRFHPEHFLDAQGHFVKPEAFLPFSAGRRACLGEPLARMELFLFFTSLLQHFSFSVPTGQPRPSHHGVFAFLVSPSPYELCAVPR

Turning to `CN(C)CCc1c[nH]c2ccc(Cn3cncn3)cc12` [rizatriptan], the pKa in series [1] was 9.49. Regarding `CN(C)CCc1c[nH]c2ccc(C[C@H]3COC(=O)N3)cc12` [Zolmitriptan], in series [1], the pKa is given as 9.52. Take `CN1CCN(C(c2ccccc2)c2ccccc2)CC1` [cyclizine]: the pKa in series [1] is reported as 8.35.

Turning to `COc1c(N2C[C@@H]3CCCN[C@@H]3C2)c(F)cc2c(=O)c(C(=O)O)cn(C3CC3)c12` [moxifloxacin], the pKa in series [1] is on record as 10.01. Consider `CN1CCC[C@@H]1Cc1c[nH]c2ccc(CCS(=O)(=O)c3ccccc3)cc12` [eletriptan, Eletriptan], for which the pKa in series [1] is 10.13. Turning to `CN(C)CCC=C1c2ccccc2C=Cc2ccccc21` [cyclobenzaprine, Cyclobenzaprine], the pKa in [1] is listed as 9.21.

Regarding `COc1ccc(OCC2CN(C)CCC2c2ccccc2)cc1` (stereo not drawn) [femoxetine, Femoxetine], the pKa in [1] is listed as 9.00. Take `CCCCCCCCOC(=O)N(C)CCCN1c2ccccc2CCc2ccccc21` [RIC-5d, [3-(10,11-Dihydro-dibenzo[b,f]azepin-5-yl)-propyl]-methyl-carbamic acid octyl ester]: the “Loss of parent compound with CYP3A4 isozyme (%)” value in series [2] (incubation time 0 min) came out at 0.00%; in [2] (incubation time 30 min) it was 33.66%; in series [2] (incubation time 60 min), 60.64%. Besides, the “Loss of parent compound with ketoconazole (%)” value amounted to 15.18% in series [3] (incubation time 30 min) and 55.88% in series [3] (incubation time 60 min). Moreover, the “Loss of parent compound in rat plasma (%)” value was 0.00% in series [4] (incubation time 0 min), −8.16% in series [4] (incubation time 30 min), 41.70% in series [4] (incubation time 60 min) and 73.48% in [4] (incubation time 120 min). The “Loss of parent compound in simulated intestinal fluid (%)” value is 0.00% in [5] (phosphate pH 6, incubation time 0 min); 7.73% in series [5] (phosphate pH 6, incubation time 30 min); −8.72% in series [5] (phosphate pH 6, incubation time 60 min); 4.23% in series [5] (phosphate pH 6, incubation time 120 min). Further, the “Loss of parent compound with no ketoconazole (%)” value in [6] (incubation time 30 min) is given as 59.12%; in [6] (incubation time 60 min), 74.17%. Also, the “Loss of parent compound in human plasma (%)” value in series [7] (incubation time 0 min) is listed as 0.00%; in series [7] (incubation time 30 min) it was −32.74%; in series [7] (incubation time 60 min), −1.44%; in [7] (incubation time 120 min), 49.54%. Moreover, the “Loss of parent compound with CYP2D6 isozyme (%)” value in series [8] (incubation time 0 min) was 0.00%; in series [8] (incubation time 30 min), 18.68%. Also, the “Loss of parent compound in simulated gastric fluid (%)” value in series [9] (incubation time 0 min) is reported as 0.00%; in series [9] (incubation time 30 min), 13.84%. In the case of `COc1cc(N)c(Cl)cc1C(=O)NC1CCNCC1OC` (stereo not drawn) [norcisapride], the pKa in series [1] is on record as 8.46. With `O=C1NC(=O)C(c2ccccc2)(c2ccccc2)N1` [phenytoin], the pKa in series [1] is listed as 8.31.

`O=C1NCCN1CCN1CCC(c2cn(-c3ccc(F)cc3)c3ccc(Cl)cc23)CC1` [sertindole, Sertindole]: the pKa in [1] is 9.06. With `CN(C)CCC[C@@]1(c2ccc(F)cc2)OCc2cc(C#N)ccc21` [escitalopram, Escitalopram], the pKa in [1] was 9.60. `CC(C)(C)c1ccc(C(O)CCCN2CCC(C(O)(c3ccccc3)c3ccccc3)CC2)cc1` (stereo not drawn) [terfenadine, Terfenadine]: the pKa in series [1] was 9.60. Turning to `CN(C)CCCN1c2ccccc2CCc2ccc(Cl)cc21` [clomipramine], the pKa in series [1] was 9.50. Turning to `CN1CCN(CCCN2c3ccccc3Sc3ccc(C(F)(F)F)cc32)CC1` [trifluoperazine], the pKa in series [1] was 7.98. Consider `CNCCC(Oc1ccccc1C)c1ccccc1` (stereo not drawn) [atomoxetine, Atomoxetine], for which, in series [1], the pKa is listed as 10.12. For `CCc1nn(CCCN2CCN(c3cccc(Cl)c3)CC2)c(=O)n1CCOc1ccccc1` [nefazodone], the pKa in series [1] was 7.90. For `CN1CCN(C2=Nc3cc(Cl)ccc3Nc3ccccc32)CC1` [clozapine, Clozapine], the pKa in [1] is recorded as 8.20.

Take `Fc1ccc(-n2cc(C3CCNCC3)c3cc(Cl)ccc32)cc1` [norsertindole]: in series [1], the pKa was 10.61. As for `CNCCCC12CCC(c3ccccc31)c1ccccc12` [maprotiline], the pKa in [1] is given as 10.20. With `CN(C)CCOC(C)(c1ccccc1)c1ccc(Cl)cc1` (stereo not drawn) [chlorphenoxamine, Chlorphenoxamine], the pKa in series [1] is 8.21. Take `Cc1cccc(CN2CCN(C(c3ccccc3)c3ccc(Cl)cc3)CC2)c1` (stereo not drawn) [meclizine]: in series [1], the pKa was 7.32. Turning to `COc1cc(N)c(Cl)cc1C(=O)NC1CCN(CCCOc2ccc(F)cc2)CC1OC` (stereo not drawn) [cisapride, Cisapride], in series [1], the pKa was 7.04. Turning to `CC1COc2c(N3CCN(C)CC3)c(F)cc3c(=O)c(C(=O)O)cn1c23` (stereo not drawn) [ofloxacin], in [1], the pKa is 7.09. For `CN[C@@H]1CCc2[nH]c3ccc(C(N)=O)cc3c2C1` [frovatriptan, Frovatriptan], in series [1], the pKa is recorded as 10.63. `CC(N)C12CC3CC(CC(C3)C1)C2` (stereo not drawn) [rimantadine]: the pKa in [1] is listed as 11.70. `CN(C)CCC=C1c2ccccc2COc2ccccc21` (mixture of isomers) [doxepin, Doxepin]: in series [1], the pKa is 8.00. In the case of `CN1CCC[C@@H]1CCO[C@](C)(c1ccccc1)c1ccc(Cl)cc1` [clemastine], the pKa in series [1] was 10.23. `O=C1Cc2cc(CCN3CCN(c4nsc5ccccc45)CC3)c(Cl)cc2N1` [ziprasidone]: in [1], the pKa is listed as 8.24.

By pKa is commonly meant the pH at which an ionisable group is half protonated.
